We go through eight molecules from PubChem BioAssay (NCI).

Molecules are shown by their SMILES.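 In this assay, cells in 96-well plates receive the compound at five concentrations for 48 hours. Endpoints are linearly interpolated between the surrounding concentrations. TGI is the concentration that stops growth completely.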

Assay in all cases: NCI anticancer screen, dose series, 48 h
The test system of assay [1] is OVCAR-5 ovarian.
For assay [2], the system named is MCF7 breast.
Assay [3] deals with M14 melanoma.
The subject of assay [4] is PC-3 prostate.
Assay [5] has as its system HCT-116 colon.
In assay [6] the test system is MDA-MB-231 breast.
The subject of assay [7] is SF-539 CNS.
For assay [8], the system named is NCI-H23 lung.
Assay [9] relates to NCI-H460 lung.
For assay [10], the system named is NCI-H522 lung.
Assay [11] has as its system SNB-19 CNS.
Assay [12] has as its system MDA-N.
For assay [13], the system named is HCC-2998 colon.
The test system of assay [14] is T-47D breast.
For assay [15], the system named is SR leukemia.
The test system of assay [16] is MOLT-4 leukemia.
The test system of assay [17] is MALME-3M melanoma.
Assay [18] concerns OVCAR-3 ovarian.
For assay [19], the system named is UACC-62 melanoma.
For assay [20], the system named is CAKI-1 renal.

For `COC(=O)[C@H]1C[C@H]1NC(=O)C(CC(=O)OCc1ccccc1)NC(=O)OCc1ccccc1` (stereo partly specified), the TGI in assay [1] is greater than 100 µM; in assay [2], greater than 100 µM; in assay [3], 52.1 µM; in assay [4] it was greater than 100 µM; in assay [5], greater than 100 µM; in [6] it was greater than 100 µM. The TGI was greater than 100 µM in assay [7]; greater than 100 µM in assay [8]; 72.4 µM in assay [9]; greater than 100 µM in [10]; greater than 100 µM in [11]; greater than 100 µM in assay [12]. In addition, the TGI in assay [13] was greater than 100 µM; in [14], 98.4 µM; in [15] it was greater than 100 µM; in [16] it was greater than 100 µM.
Regarding `O=C1Nc2ccccc2S/C1=C\c1cccc(C(F)(F)F)c1`, the TGI in assay [17], in assay [1], in assay [2], in assay [3], in [4] and in assay [18] was greater than 100 µM in each case. The TGI in assay [5], in assay [6], in assay [7], in [9], in assay [10] and in [19] was greater than 100 µM in each case. For the same molecule, the TGI in [20] is 37.4 µM; in [11] it was greater than 100 µM; in assay [12], greater than 100 µM; in assay [14], greater than 100 µM; in [15] it was greater than 100 µM; in assay [16] it was greater than 100 µM.
Consider `Oc1ccc2oc3c(O)c4ccccc4cc3c2c1`, for which the TGI in assay [17] is 33.4 µM; in [2] it was 18.8 µM; in [3], 21.7 µM; in assay [4] it was greater than 100 µM; in assay [18], 15.1 µM; in assay [5], 4.16 µM. Also, the TGI in assay [6] is 36 µM; in [7], 3.91 µM; in [8], 65.3 µM; in [9], 53.9 µM; in [10] it was 2.71 µM; in [19], 1.67 µM. In addition, the TGI is 68.7 µM in assay [20]; greater than 100 µM in assay [11]; 9.89 µM in [12]; 55.4 µM in assay [14]; 5.52 µM in assay [15]; 11.9 µM in [16].
As for `COc1ccc(OC)c(C23CCCC(C2)N(C)CC3)c1` (stereo unspecified), the TGI was greater than 100 µM in assay [1]; 32.1 µM in assay [2]; 34.1 µM in assay [3]; 41.2 µM in assay [4]; 46.7 µM in assay [18]; 41.3 µM in assay [5]. Besides, the TGI in assay [6] was greater than 100 µM; in [8], greater than 100 µM; in assay [9], 52 µM; in assay [19], 46 µM; in assay [20] it was greater than 100 µM; in assay [11], 49 µM. The TGI in assay [12] is 74.6 µM; in assay [14] it was greater than 100 µM; in assay [15], 44.7 µM; in [16], greater than 100 µM.
Take `Cc1cnc(-c2c[nH]c3ccccc23)nc1-c1c[nH]c2ccccc12`: the TGI was 20.9 µM in assay [1]; 19.1 µM in [2]; 16.4 µM in [3]; 14.2 µM in [4]; 21.7 µM in [18]; 16.4 µM in [5]. For the same molecule, the TGI turned out to be 7.78 µM in [6]; 30.7 µM in assay [7]; 14.8 µM in assay [9]; 17.4 µM in assay [19]; 23.2 µM in assay [20]; 24.9 µM in assay [11]. Also, the TGI stood at 15.8 µM in assay [12]; 15.8 µM in assay [13]; 9.15 µM in assay [14]; 33.9 µM in [15]; 28.4 µM in assay [16].
Take `COC(=O)Nc1nc2ccc(S(=O)(=O)n3nnc4ccccc43)cc2[nH]1`: the TGI in assay [17], in [1], in assay [2], in [3], in [4] and in [18] was greater than 100 µM in each case. The TGI was greater than 100 µM in assay [5]; greater than 100 µM in [6]; 24.4 µM in [7]; greater than 100 µM in assay [8]; greater than 100 µM in assay [9]; greater than 100 µM in [10]. In addition, the TGI in [19], in assay [20], in assay [11], in assay [12], in assay [14] and in assay [15] was greater than 100 µM in each case. In [16], the TGI was greater than 100 µM.
Take `Cc1ccc(S(=O)(=O)/N=C(\N)N(C)N=O)cc1`: the TGI in assay [17], in assay [1], in assay [2], in assay [3], in assay [4] and in assay [18] was greater than 100 µM in each case. Moreover, the TGI in [5], in assay [6], in [7], in assay [8], in assay [9] and in assay [10] was greater than 100 µM throughout. Moreover, the TGI in assay [19], in [20], in assay [11], in assay [12], in [14] and in assay [15] was greater than 100 µM each time. This molecule returned a TGI in assay [16] greater than 100 µM.
Consider `O=C1Nc2ccccc2S/C1=C\c1ccccc1C(F)(F)F`, for which the TGI in assay [17], in assay [1], in [2], in assay [3], in [4] and in assay [18] was greater than 100 µM in each case. Besides, the TGI in assay [5], in [6], in assay [7], in [9], in [10] and in assay [19] was greater than 100 µM throughout. Moreover, the TGI in [20], in [11], in [12], in assay [14], in assay [15] and in assay [16] was greater than 100 µM each time.
